Source: patent publication US20050164308A1, “Beta-lactamase CD4+ T-cell epitopes” (priority 2003, published 2005)

Assays:
CD4+ T-cells [1] = type: cell-based, human; conditions: for effect of the change on the percent of responders to the modified epitope sequence: epitope #49 substitution, 69 donors
[2] = tested on: HLA-DRB1 and DQB1 antigens; test: HLA association with responses to epitope peptides; parameters: species or system human
Experimental: HLA-DR and DQ types were analyzed for associations with responses to defined epitope peptides. A Chi-squared analysis, with one degree of freedom was used to determine significance. Where an allele was present in both the responder and non-responder pools, a relative risk was calculated.
The HLA-DR and DQ expression of 65 of the donors tested in both rounds of assay testing described above were assessed using a commercially available PCR-based HLA typing kit (Bio-Synthesis). […] Wherever the HLA antigen was present in both reactive and non-reactive donors, a relative risk (i.e., the increased or decreased likelihood of presenting a reaction conditioned on the presence of the HLA antigen) was computed. […] In addition, the mean and standard error of quantitative response for each peptide were determined.
The magnitude of the proliferative response to an individual peptide in responders and non-responders expressing epitope-associated HLA alleles were also be analyzed. An “individual responder to the peptide” is defined by a stimulation index of greater than 2.95.

CD4+ T-cells [3] = test: I-MUNE assay: proliferation of CD4+ T-cells with differentiated dendritic cells in response to beta-lactamase 15-mer peptides; type: cell-based, human

## GTTRLYANASVGLFG (beta-lactamase epitope) [Peptide I155V, peptide #49 with the substitution I155V]
CD4+ T-cells [1]
  effect of the change on the percent of responders to the modified epitope sequence: increased the percent of responders

## GTTRLYANASFGLFG (beta-lactamase epitope) [Peptide I155F, peptide #49 with the substitution I155F]
CD4+ T-cells [1]
  effect of the change on the percent of responders to the modified epitope sequence: little effect

## #36 (MLDLATYTAGGLPLQ; listed as Enterobacter cloacae)
[2]; donors reactive to the peptide
  quantitative response of DR1+ responders: 7.8
  quantitative response of DR1- responders: 4.42
CD4+ T-cells [3]
  response (percent responders): 12.11%

## GTTRSYANASIGLFG (variant of SEQ ID NO82) [Peptide L149S, peptide #49 with the substitution L149S]
CD4+ T-cells [1]
  effect on the epitope response rate: had an effect

## GTTRLYANASLGLFG (beta-lactamase epitope) [Peptide I155L, peptide #49 with the substitution I155L]
CD4+ T-cells [1]
  effect of the change on the percent of responders to the modified epitope sequence: little effect

## tetanus toxoid [reference compound]
CD4+ T-cells [3]; approximately 5 Lf/mL
  positive control proliferative response: robust positive control responses

## #107 (TGGFGSYVAFIPEKQ; listed as Enterobacter cloacae)
[2]; among non-responders
  response of DR13 non-responders lower than the other genotypes: 23%
[2]; donors reactive to the peptide
  increase of quantitative response in DR1+ relative to DR1- responders: 27%
  quantitative response of DR1+ responders: 5.4
  quantitative response of DR1- responders: 4.2
CD4+ T-cells [3]
  response (percent responders): 12.11%
